Results taken from PubChem BioAssay AID1919001 (Molecular Pharmacology Branch, DTP, NCI, 2023).
Several values for one entry are separate records, joined by “and”; a condition that tells them apart may be missing. Equal values may be shown once.

System: 699152-130-R-J1-PDC complex spheroid growth
Assay: Anticancer human tumor 699152-130-R-J1-PDC patient-derived pancreatic carcinoma cell line growth inhibition [AhR]
Conditions: for viability, T/C: stronger effect = lower value
In short: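 Spheroids combined tumor cells with HUVEC endothelial cells and human MSCs as stroma. AhR antagonists were paired with standard or investigational drugs, each dosed in half-log steps down from near clinical Cmax, or from 10 microM where Cmax was unknown.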

[1] = curve of first compound, second compound 0.1 µM
[2] = curve of first compound, second compound 0.316 µM
[3] = curve of first compound, second compound 1 µM
[4] = curve of first compound, second compound 3.16 µM
[5] = curve of first compound, second compound 10 µM
[6] = second compound 0.1 µM, first compound 0.0316 µM
[7] = second compound 0.1 µM, first compound 0.1 µM
[8] = second compound 0.1 µM, first compound 0.316 µM
[9] = second compound 0.1 µM, first compound 1 µM
[10] = second compound 0.1 µM, first compound 3.16 µM
[11] = second compound 0.1 µM, first compound 10 µM
[12] = second compound 0.316 µM, first compound 0.0316 µM
[13] = second compound 0.316 µM, first compound 0.1 µM
[14] = second compound 0.316 µM, first compound 0.316 µM
[15] = second compound 0.316 µM, first compound 1 µM
[16] = second compound 0.316 µM, first compound 3.16 µM
[17] = second compound 0.316 µM, first compound 10 µM
[18] = second compound 1 µM, first compound 0.0316 µM
[19] = second compound 1 µM, first compound 0.1 µM
[20] = second compound 1 µM, first compound 0.316 µM
[21] = second compound 1 µM, first compound 1 µM
[22] = second compound 1 µM, first compound 3.16 µM
[23] = second compound 1 µM, first compound 10 µM
[24] = second compound 3.16 µM, first compound 0.0316 µM
[25] = second compound 3.16 µM, first compound 0.1 µM
[26] = second compound 3.16 µM, first compound 0.316 µM
[27] = second compound 3.16 µM, first compound 1 µM
[28] = second compound 3.16 µM, first compound 3.16 µM
[29] = second compound 3.16 µM, first compound 10 µM
[30] = second compound 10 µM, first compound 0.0316 µM
[31] = second compound 10 µM, first compound 0.1 µM
[32] = second compound 10 µM, first compound 0.316 µM
[33] = second compound 10 µM, first compound 1 µM
[34] = second compound 10 µM, first compound 3.16 µM
[35] = second compound 10 µM, first compound 10 µM
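Further: compound exposure lasted 7 days after spheroids had grown for 3 days.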

Structure (SMILES)	IC50 [1] [nM]	IC50 [2] [nM]	IC50 [3] [nM]	IC50 [4] [nM]	IC50 [5] [nM]	viability, T/C [6] [%]	viability, T/C [7] [%]	viability, T/C [8] [%]	viability, T/C [9] [%]	viability, T/C [10] [%]	viability, T/C [11] [%]	viability, T/C [12] [%]	viability, T/C [13] [%]	viability, T/C [14] [%]	viability, T/C [15] [%]	viability, T/C [16] [%]	viability, T/C [17] [%]	viability, T/C [18] [%]	viability, T/C [19] [%]	viability, T/C [20] [%]	other results
O=C(c1cc(Cc2n[nH]c(=O)c3ccccc23)ccc1F)N1CCN(C(=O)C2CC2)CC1 + Cc1cncc(-c2nc(NCCc3c[nH]c4ccccc34)c3ncn(C(C)C)c3n2)c1	> 10000	> 10000	> 10000	> 10000	< 31.6	119	104	105	97.6	120	82.9	104	101	111	105	95.3	90	119	120	119	viability, T/C [21]: 116%; viability, T/C [22]: 107%; viability, T/C [23]: 106%; viability, T/C [24]: 96.8%; viability, T/C [25]: 93.7%; viability, T/C [26]: 89.7%; viability, T/C [27]: 90%; viability, T/C [28]: 95.1%; viability, T/C [29]: 93.4%; viability, T/C [30]: 9.79%; viability, T/C [31]: 10.4%; viability, T/C [32]: 12.8%; viability, T/C [33]: 11.7%; viability, T/C [34]: 11.9%; viability, T/C [35]: 15.3%
Nc1ccccc1NC(=O)c1ccc(CNC(=O)OCc2cccnc2)cc1 + Cc1cncc(-c2nc(NCCc3c[nH]c4ccccc34)c3ncn(C(C)C)c3n2)c1	7180	6480	8110	5350	< 31.6	94.9	96.5	99.3	107	77	39.1	110	97.2	105	105	72.3	36.5	118	116	113	viability, T/C [21]: 108%; viability, T/C [22]: 72%; viability, T/C [23]: 45.1%; viability, T/C [24]: 77.8%; viability, T/C [25]: 81.4%; viability, T/C [26]: 70.3%; viability, T/C [27]: 64.2%; viability, T/C [28]: 68.1%; viability, T/C [29]: 33.8%; viability, T/C [30]: 11.6%; viability, T/C [31]: 7.91%; viability, T/C [32]: 7.77%; viability, T/C [33]: 9.69%; viability, T/C [34]: 7.99%; viability, T/C [35]: 3.12%
COc1cccc2c1C(=O)c1c(O)c3c(c(O)c1C2=O)CC(O)(C(=O)CO)CC3OC1CC(N)C(O)C(C)O1 (centres undefined) + Cc1cncc(-c2nc(NCCc3c[nH]c4ccccc34)c3ncn(C(C)C)c3n2)c1	349	342	356	117	< 31.6	67.3	64.1	51.4	25.4	2.77	7.37	62.9	58.7	51.6	22.9	2.99	7.49	70.8	71.5	52.5	viability, T/C [21]: 20.9%; viability, T/C [22]: 3.69%; viability, T/C [23]: 6.86%; viability, T/C [24]: 51.5%; viability, T/C [25]: 53.3%; viability, T/C [26]: 34.7%; viability, T/C [27]: 5.89%; viability, T/C [28]: 4.86%; viability, T/C [29]: 7.43%; viability, T/C [30]: 14.6%; viability, T/C [31]: 16.3%; viability, T/C [32]: 14.2%; viability, T/C [33]: 1.29%; viability, T/C [34]: 5.06%; viability, T/C [35]: 5.36%
CC[C@@]1(O)C(=O)OCc2c1cc1n(c2=O)Cc2cc3c(CN(C)C)c(O)ccc3nc2-1	–	–	–	–	–	–	–	–	–	–	–	–	–	–	–	–	–	–	–	–	viability, T/C (compound 0.000316 µM): 103% and 108% and 86.6%; viability, T/C (compound 0.001 µM): 91.2% and 96.4% and 99%; viability, T/C (compound 0.00316 µM): 104% and 102% and 90%; viability, T/C (compound 0.01 µM): 103% (2×) and 83.5%; viability, T/C (compound 0.0316 µM): 90.8% and 91.3% and 70%; viability, T/C (compound 0.1 µM): 62.8% and 70.9% and 53.5%; IC50 (curve of compound): > 100 nM
COc1cc(C2c3cc4c(cc3C(OC3OC5COC(C)OC5C(O)C3O)C3COC(=O)C23)OCO4)cc(OC)c1O (centres undefined)	–	–	–	–	–	–	–	–	–	–	–	–	–	–	–	–	–	–	–	–	viability, T/C (compound 0.0316 µM): 97.3% and 94.8% and 92.4%; viability, T/C (compound 0.1 µM): 94.7% and 101% and 86.3%; viability, T/C (compound 0.316 µM): 76.1% and 83.2% and 73.8%; viability, T/C (compound 1 µM): 66.5% and 70.9% and 62.2%; viability, T/C (compound 3.16 µM): 68.3% and 64.6% and 51.9%; viability, T/C (compound 10 µM): 53.4% and 53.8% and 44.4%; IC50 (curve of compound): > 10000 nM and 4090 nM
COc1cc(Nc2ncc3c(n2)-c2ccc(Cl)cc2C(c2c(F)cccc2OC)=NC3)ccc1C(=O)O + CC(CO)NC(=O)c1cc(-c2ccc(Cl)cc2)nn(-c2cnn(C)c2)c1=O	> 10000	> 10000	> 10000	> 10000	> 10000	92.5	79.1	78.6	65.3	63.8	62.3	97	94.4	74.5	63	65.1	60.9	95	84	86	viability, T/C [21]: 65.8%; viability, T/C [22]: 64.1%; viability, T/C [23]: 59.7%; viability, T/C [24]: 85%; viability, T/C [25]: 76.1%; viability, T/C [26]: 85.3%; viability, T/C [27]: 59.6%; viability, T/C [28]: 60.2%; viability, T/C [29]: 56.1%; viability, T/C [30]: 78.7%; viability, T/C [31]: 85.8%; viability, T/C [32]: 83%; viability, T/C [33]: 73.1%; viability, T/C [34]: 69.7%; viability, T/C [35]: 58.9%
COc1cccc2c1C(=O)c1c(O)c3c(c(O)c1C2=O)CC(O)(C(=O)CO)CC3OC1CC(N)C(O)C(C)O1 (centres undefined) + Cc1ccccc1N=Nc1ccc(NC(=O)c2ccnn2C)c(C)c1	214	285	228	154	213	65.5	59.3	44	25.2	4.33	8.93	58.8	58.8	45.8	30.2	2.54	9.1	65.5	62.9	43	viability, T/C [21]: 26.5%; viability, T/C [22]: 4.29%; viability, T/C [23]: 6.64%; viability, T/C [24]: 62.1%; viability, T/C [25]: 53.2%; viability, T/C [26]: 40.9%; viability, T/C [27]: 26.1%; viability, T/C [28]: 2.91%; viability, T/C [29]: 8.18%; viability, T/C [30]: 74.4%; viability, T/C [31]: 63.1%; viability, T/C [32]: 42.6%; viability, T/C [33]: 22.7%; viability, T/C [34]: 4.35%; viability, T/C [35]: 10.2%
